Literature values, collected in patent US6045800A, “Composition for preventing or treating periodontal diseases comprising extract from Achyranthis radix or Ulmus cortex” (LG Chemical Ltd., priority 1997, dated 2000).

Tested on: periodontal diseases

For `CN(C)C1C(=O)C(C(N)=O)=C(O)C2(O)C(=O)C3=C(O)c4c(O)cccc4C(C)(O)C3CC12` (stereo not drawn) [tetracycline], the “clinical effect on the symptom of the disease” value (1000 mg/day for 5 to 7 days) is listed as “relieved to a clinically normal state”, the “clinical effect of long term administration” value (daily dose of 1000 mg for 2 weeks, then 250 mg once daily for 48 weeks) is listed as “gingivitis has clinically decreased” and the side effects (use of the antibiotic) is listed as “vomiting, a complaint for the ache of gastrointestinal tracts, diarrhea, dental coloring”.
